This is an account of results in ChEMBL document CHEMBL1201862, “PubChem BioAssay data set” (2004).

Among the test systems are UO-31; M14; SNB-19; PC-3; SW-620; DU-145; SK-OV-3; BT-549; HOP-62; MCF7; SR; SK-MEL-28; 786-0; CAKI-1; SK-MEL-5; NCI/ADR-RES; NCI-H460; NCI-H23; MDA-MB-231; LOX IMVI.
Assay in all cases: NCI anticancer screen, dose series, 48 h

SMILES strings stand for the structures.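 In this assay, cells in 96-well plates receive the compound at five concentrations for 48 hours. Endpoints are linearly interpolated between the surrounding concentrations. GI50 = concentration required for 50% inhibition of growth.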 Calls of active or inactive are those of the source. Cut-off read from the data, not from the text of the source: active = GI50 up to about 1.1 µM and inactive = higher.

As to `Cc1c(/C=N/NC(=S)Nc2cccc(Cl)c2)c(=O)n(-c2ccccc2)n1C`, the GI50 in the experiment on UO-31 was 15.3 µM (inactive); with M14, 16.6 µM (inactive); in the experiment with SNB-19 it was 19.1 µM (inactive); in the experiment on PC-3, 34.6 µM (inactive); with SW-620, 51.2 µM (inactive); in the experiment with DU-145, 24.1 µM (inactive). Besides, the GI50 in the experiment with SK-OV-3 is 18.2 µM (inactive); with BT-549, 21.4 µM (inactive); with HOP-62 it was 13.9 µM (inactive); in the experiment on MCF7 it was 24.2 µM (inactive); with SR it was 50.1 µM (inactive); with SK-MEL-28, > 100 µM (inactive). Also, the GI50 with 786-0 was 18.3 µM (inactive); in the experiment on CAKI-1, 13 µM (inactive); in the experiment on SK-MEL-5, 36.1 µM (inactive); with NCI/ADR-RES, 4.35 µM (inactive); with NCI-H460 it was 9.4 µM (inactive); in the experiment on NCI-H23 it was 28.7 µM (inactive). Besides, the values for the GI50 with MDA-MB-231 and with LOX IMVI were 17.6 µM (inactive) and 46.8 µM (inactive), respectively.

On to `CCC(N)(C(=O)O)C(C)C` (stereo not given), for which the GI50 in the experiment on UO-31, with M14, in the experiment with SNB-19, in the experiment with PC-3, with SW-620 and with DU-145 was > 100 µM (inactive) throughout. Also, the GI50 with SK-OV-3, in the experiment with BT-549, with HOP-62, with MCF7, with SR and in the experiment on SK-MEL-28 was > 100 µM (inactive) throughout. Moreover, the GI50 in the experiment with 786-0, in the experiment with CAKI-1, with SK-MEL-5, in the experiment with NCI/ADR-RES, in the experiment with NCI-H460 and in the experiment with NCI-H23 was > 100 µM (inactive) each time. Also, the GI50 in the experiment on MDA-MB-231 and in the experiment with LOX IMVI was > 100 µM (inactive) each time.

With `COc1ccc(C(=O)c2sc(Nc3ccc(Cl)cc3)nc2N)cc1`, the GI50 is 38.2 µM (inactive) in the experiment on UO-31; > 63.8 µM (inactive) with M14; 17.2 µM (inactive) in the experiment with SNB-19; 12.1 µM (inactive) in the experiment on PC-3; 5.71 µM (inactive) in the experiment on SW-620; 25 µM (inactive) with DU-145. In addition, the GI50 was 6.35 µM (inactive) in the experiment with SK-OV-3; > 38.5 µM (inactive) with BT-549; 7.91 µM (inactive) in the experiment with HOP-62; 4.45 µM (inactive) in the experiment with MCF7; 1.93 µM (inactive) in the experiment on SR; 29.4 µM (inactive) in the experiment with SK-MEL-28. For the same compound, the GI50 in the experiment on 786-0 was 7.8 µM (inactive); in the experiment on CAKI-1, 16.4 µM (inactive); in the experiment with SK-MEL-5 it was 18.3 µM (inactive); in the experiment with NCI/ADR-RES it was 5.37 µM (inactive); with NCI-H460 it was 4.31 µM (inactive); in the experiment on NCI-H23, 13.6 µM (inactive). Besides, the GI50 in the experiment on MDA-MB-231 is 26.3 µM (inactive); in the experiment with LOX IMVI, 9.42 µM (inactive).

As for `COc1ccc(/C=C2/CSC/C(=C/c3ccc(OC)c(OC)c3)C2=O)cc1OC`, the GI50 with UO-31 is 4.65 µM (inactive); in the experiment with M14, 3.04 µM (inactive); in the experiment on SNB-19 it was 3.5 µM (inactive); in the experiment with PC-3 it was 3.03 µM (inactive); in the experiment with SW-620, 1.19 µM (inactive); in the experiment on DU-145, 2.88 µM (inactive). The GI50 with SK-OV-3 was 6.73 µM (inactive); in the experiment on BT-549 it was 2.88 µM (inactive); in the experiment on HOP-62 it was 3.67 µM (inactive); with MCF7, 2.22 µM (inactive); in the experiment on SR it was 0.828 µM (active); with SK-MEL-28, 2.94 µM (inactive). In addition, the GI50 in the experiment on 786-0 is 2.02 µM (inactive); in the experiment with CAKI-1, 3.49 µM (inactive); in the experiment with SK-MEL-5, 2.44 µM (inactive); in the experiment on NCI/ADR-RES, 1.66 µM (inactive); with NCI-H460, 2.23 µM (inactive); with NCI-H23, 2.3 µM (inactive). Also, the GI50 in the experiment on MDA-MB-231 was 3.28 µM (inactive); with LOX IMVI, 1.27 µM (inactive).

For the compound `Cc1ccc(-n2cc(-c3ccc(Cl)cc3)c(C#N)c2N)cc1`, the GI50 was 13.2 µM (inactive) in the experiment on UO-31; 15.3 µM (inactive) with M14; 17.3 µM (inactive) with SNB-19; 12.6 µM (inactive) in the experiment with PC-3; 13.2 µM (inactive) in the experiment on SW-620; 25.2 µM (inactive) in the experiment with DU-145. Further, the GI50 in the experiment on SK-OV-3 is 20.7 µM (inactive); in the experiment with BT-549 it was 18.2 µM (inactive); with HOP-62 it was 17.9 µM (inactive); in the experiment on MCF7, 14.6 µM (inactive); in the experiment on SR, 6.67 µM (inactive); in the experiment on SK-MEL-28 it was 18.1 µM (inactive). The GI50 with 786-0 is 15.3 µM (inactive); with CAKI-1 it was 21.2 µM (inactive); in the experiment with SK-MEL-5, 16.1 µM (inactive); with NCI/ADR-RES, 17.3 µM (inactive); with NCI-H460 it was 15.1 µM (inactive); in the experiment with NCI-H23 it was 15.7 µM (inactive). Also, the results for the GI50 with MDA-MB-231 and with LOX IMVI were 14.7 µM (inactive) and 15 µM (inactive), respectively.

Take `O=C(O)c1ccc(CNCc2ccccc2)cc1`: the GI50 in the experiment with UO-31, in the experiment on M14, in the experiment on SNB-19, in the experiment with PC-3, in the experiment on SW-620 and in the experiment on DU-145 was > 100 µM (inactive) in each case. The GI50 in the experiment on SK-OV-3, in the experiment on BT-549, in the experiment with HOP-62, in the experiment on MCF7, with SR and in the experiment on SK-MEL-28 was > 100 µM (inactive) in each case. For the same compound, the GI50 in the experiment on 786-0, in the experiment on CAKI-1, in the experiment on SK-MEL-5, in the experiment on NCI/ADR-RES, in the experiment on NCI-H460 and in the experiment with NCI-H23 was > 100 µM (inactive) each time. For the same compound, the GI50 with MDA-MB-231 and with LOX IMVI was > 100 µM (inactive) each time.

On to `COC(=O)CCC(=O)NC1=C(Nc2ccccc2)C(=O)c2ccccc2C1=O`, for which the GI50 is 17.9 µM (inactive) in the experiment with UO-31; 3.58 µM (inactive) in the experiment on M14; 17.2 µM (inactive) with SNB-19; 12.4 µM (inactive) in the experiment with PC-3; 11.4 µM (inactive) in the experiment on SW-620; 10.8 µM (inactive) with DU-145. In addition, the GI50 in the experiment on SK-OV-3 is 12.9 µM (inactive); with BT-549 it was 10.6 µM (inactive); in the experiment with HOP-62, 17.8 µM (inactive); with MCF7, 3.89 µM (inactive); with SR, 11.4 µM (inactive); in the experiment with SK-MEL-28 it was 8.51 µM (inactive). Also, the GI50 in the experiment with 786-0 is 12.3 µM (inactive); in the experiment with CAKI-1 it was 14.4 µM (inactive); in the experiment on SK-MEL-5 it was 1.83 µM (inactive); with NCI/ADR-RES it was 14.8 µM (inactive); in the experiment on NCI-H460 it was 15.3 µM (inactive); with NCI-H23, 4.28 µM (inactive). Further, the figures for the GI50 with MDA-MB-231 and with LOX IMVI were 9.66 µM (inactive) and 4.34 µM (inactive), respectively.

Take `Cc1cc2c(cc1-c1cc3c(cc1C)C(C(C)C)=C(O)C(=O)/C3=C\NCC1CCCN3CCCCC13)/C(=C/NCC1CCCN3CCCCC13)C(=O)C(O)=C2C(C)C` (stereo not given): the GI50 with UO-31 is 3.43 µM (inactive); in the experiment on M14 it was 5.02 µM (inactive); with SNB-19 it was 7.98 µM (inactive); in the experiment on PC-3, 5.02 µM (inactive); with SW-620 it was 5.48 µM (inactive); in the experiment on DU-145, 11 µM (inactive). The GI50 is 4 µM (inactive) in the experiment with SK-OV-3; 15.9 µM (inactive) in the experiment with BT-549; 4.27 µM (inactive) in the experiment on HOP-62; 12.4 µM (inactive) in the experiment on MCF7; 26.2 µM (inactive) with SR; 12.1 µM (inactive) with SK-MEL-28. In addition, the GI50 with 786-0 was 3.02 µM (inactive); in the experiment on CAKI-1 it was 3.81 µM (inactive); with SK-MEL-5, 6.75 µM (inactive); in the experiment on NCI/ADR-RES it was 7.36 µM (inactive); with NCI-H460, 5.14 µM (inactive); with NCI-H23, 6.27 µM (inactive). Moreover, the GI50 in the experiment with MDA-MB-231 is 4.16 µM (inactive); in the experiment on LOX IMVI, 3.35 µM (inactive).

In the case of `O=Nc1ccc(O)c2ncccc12`, the GI50 is 2.98 µM (inactive) in the experiment with UO-31; 6.03 µM (inactive) in the experiment on M14; 16 µM (inactive) in the experiment on SNB-19; 14.7 µM (inactive) with PC-3; 4.79 µM (inactive) in the experiment on SW-620; 5.7 µM (inactive) with DU-145. Also, the GI50 with SK-OV-3 was 12.6 µM (inactive); with BT-549, 10.5 µM (inactive); in the experiment with HOP-62, 2.8 µM (inactive); in the experiment with MCF7 it was 1.76 µM (inactive); with SR, 0.328 µM (active); with SK-MEL-28 it was 4.34 µM (inactive). Further, the GI50 is 4.2 µM (inactive) in the experiment on 786-0; 16.3 µM (inactive) with CAKI-1; 7.21 µM (inactive) with SK-MEL-5; 3.85 µM (inactive) in the experiment with NCI/ADR-RES; 1.25 µM (inactive) with NCI-H460; 0.762 µM (active) with NCI-H23. Also, the GI50 with MDA-MB-231 was 6.43 µM (inactive); with LOX IMVI, 3.89 µM (inactive).

Regarding `CN(C)CCCC12CCCCC1=Nc1ccccc12` (stereo not given), the GI50 in the experiment on UO-31, with M14, in the experiment with SNB-19, in the experiment with PC-3, in the experiment on SW-620 and with DU-145 was > 100 µM (inactive) each time. The GI50 in the experiment on SK-OV-3 was > 100 µM (inactive); with BT-549, > 100 µM (inactive); with HOP-62, > 100 µM (inactive); in the experiment with MCF7, > 100 µM (inactive); with SR, 22.5 µM (inactive); in the experiment with SK-MEL-28 it was > 100 µM (inactive). For the same compound, the GI50 in the experiment on 786-0, with CAKI-1, in the experiment with SK-MEL-5, in the experiment on NCI/ADR-RES, in the experiment on NCI-H460 and in the experiment with NCI-H23 was > 100 µM (inactive) each time. Also, the GI50 with MDA-MB-231 and with LOX IMVI was > 100 µM (inactive) each time.
